Patent US20250243188A1, “METHIONINE ADENOSYLTRANSERASE 2A INHIBITORS” (IDEAYA BIOSCIENCES, INC., priority 2022, published 2025)

These compounds were tested against Human MAT2A (Homo sapiens (Human), UniProt P31153) (assay: Phosphate Sensor Fluorescence Assay (MAT2A enzyme inhibition)). Conditions: MAT2A (1-395) 5.8 nM, 500 uM L-methionine, 500 uM ATP.
Chain of Human MAT2A (P31153 whole entry): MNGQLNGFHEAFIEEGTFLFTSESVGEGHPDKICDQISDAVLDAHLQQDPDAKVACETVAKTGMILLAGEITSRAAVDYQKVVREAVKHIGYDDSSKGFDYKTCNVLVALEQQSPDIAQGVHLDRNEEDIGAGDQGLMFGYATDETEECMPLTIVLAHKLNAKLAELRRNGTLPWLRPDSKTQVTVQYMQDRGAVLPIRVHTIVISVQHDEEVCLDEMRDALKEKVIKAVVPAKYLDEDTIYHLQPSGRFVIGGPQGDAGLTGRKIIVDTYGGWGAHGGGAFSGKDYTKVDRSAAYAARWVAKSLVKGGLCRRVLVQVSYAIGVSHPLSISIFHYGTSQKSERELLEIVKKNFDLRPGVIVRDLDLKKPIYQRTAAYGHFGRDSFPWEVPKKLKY
Assay type: biochemical
Protocol: The ability of the compound of present disclosure to inhibit MAT2A enzyme was determined using a Phosphate Sensor Fluorescence Assay described below.
MAT2A enzyme is incubated with a test compound in DMSO or DMSO and its substrates (L-methionine and ATP) in a microtiter plate. The enzymatic reaction is stopped by the addition of Working Phosphate Sensor Mixture. The plate is analyzed for fluorescence at 450 nm. The high control (DMSO with enzyme and its substrates) gives high fluorescence which represents no inhibition of enzymatic activity while the low control (DMSO with MAT2A substrates and no enzyme) gives low fluorescence which represents full inhibition of enzymatic activity.
• Human MAT2A: Cepter, amino acids 1-395 (Clone ID 334, lot 00023-148) • Tris, pH 7.5: Invitrogen cat #15567-027 • KCl: Ambion cat #AM9640G • MgCl2: Ambion cat #AM9530G • Brij-35: Sigma cat B4184-10ML • DTT: Goldbio cat #DTT100 • BGG: Sigma cat #G5009-25G • PNP: Novus Biologicals cat #NBP1-50872 • 7-MEG: Cayman Chemical cat #15988 • L-Methionine: JTBaker P/N 2085-05 • ATP: Promega P/N V915B • Phosphate Sensor: Thermo Fisher cat #PV4407 • EDTA: Invitrogen cat #15575-038 • Assay plate: 384-well black polypropylene plate: Corning P/N 3573
• Assay Buffer: 50 mM Tris, pH 7.5/50 mM KCl/10 mM MgCl2/0.01% Brij-35/1 mM DTT/0.01% BGG/40 nM PNP/6 uM 7-MEG • MAT2A: 5.8 nM MAT2A (1-395), Cepter, clone ID 334, lot 00023-148 before the addition of Working Phosphate Sensor Mixture • L-methionine: 500 uM before the addition of Working Phosphate Sensor Mixture • ATP: 500 uM before the addition of Working Phosphate Sensor Mixture
For the assay, a mixture of 1 mM L-methionine/1 mM ATP (2× final pre-stopped concentration) in assay buffer; MAT2A (2× final pre-stopped concentration) in Assay Buffer and Working Phosphate Sensor Mixture (1.5 uM Phosphate Sensor/30 mM EDTA in Assay Buffer, which is 3× final concentrations) were prepared. Test compounds or DMSO were added to the appropriate well using a Beckman Coulter Echo 550 acoustic liquid handler. 10 μl/well of Assay Buffer was added to the wells corresponding to the negative control and 10 μl/well of MAT2A was added to all the wells except for those corresponding to the negative control. After incubating the plate at room temperature for 15 minutes, 10 μl/well of the 1 mM L-methionine/1 mM ATP mixture was added to all wells. The plate was centrifuged at 1000 rpm for 1 minute and then incubated at room temperature for 1 hour. 10 μl of the Working Phosphate Sensor Mixture was added to all wells and the plate was centrifuged at 1000 rpm for 1 minute. The plate was read for fluorescence at 450 nm after exciting at 430 nm on a Tecan Spark microplate reader.
Percent inhibition was calculated in Chemical and Biological Information System (CBIS), (ChemInnovation Software Inc.). Curves were fitted by CBIS as % inhibition vs. log [compound concentration] using a 4-parameter inhibition model.
`CN(C)c1nc(=O)n(-c2cccc(NC(=O)c3csc(-n4c(=O)nc(N(C)C)c5ccc(Cl)cc54)c3)c2)c2cc(Cl)ccc12` [Example 1, 5-(7-Chloro-4-(dimethylamino)-2-oxoquinazolin-1(2H)-yl)-N-(3-(7-chloro-4-(dimethylamino)-2-oxoquinazolin-1(2H)-yl)phenyl)thiophene-3-carboxamide] showed an IC50 of under 200 nM.
Work on `O=C(Nc1cccc(-n2c(=O)[nH]c(=O)c3ccc(Cl)cc32)c1)c1csc(-n2c(=O)[nH]c(=O)c3ccc(Cl)cc32)c1` [Example 2, 5-(7-Chloro-2,4-dioxo-3,4-dihydroquinazolin-1(2H)-yl)-N-(3-(7-chloro-2,4-dioxo-3,4-dihydroquinazolin-1(2H)-yl)phenyl)thiophene-3-carboxamide] yielded an IC50 of under 200 nM.
`Cc1c(C(=O)Nc2cccc(-n3c(=O)nc(N(C)C)c4ccc(Cl)cc43)c2)csc1-n1c(=O)nc(N(C)C)c2ccc(Cl)cc21` [Example 3, 5-(7-Chloro-4-(dimethylamino)-2-oxoquinazolin-1(2H)-yl)-N-(3-(7-chloro-4-(dimethylamino)-2-oxoquinazolin-1(2H)-yl)phenyl)-4-methylthiophene-3-carboxamide] gave an IC50 of under 200 nM.
`CN(C)c1nc(=O)n(-c2cccc(NC(=O)c3ncc(-n4c(=O)nc(N(C)C)c5ccc(Cl)cc54)n3C)c2)c2cc(Cl)ccc12` [Example 4, 5-(7-Chloro-4-(dimethylamino)-2-oxoquinazolin-1(2H)-yl)-N-(3-(7-chloro-4-(dimethylamino)-2-oxoquinazolin-1(2H)-yl)phenyl)-1-methyl-1H-imidazole-2-carboxamide] showed an IC50 of under 200 nM.
`O=C(Nc1cccc(-n2c(=O)[nH]c(=O)c3ccc(C(F)(F)F)cc32)c1)c1csc(-n2c(=O)[nH]c(=O)c3ccc(C(F)(F)F)cc32)c1` [Example 5, 5-(2,4-Dioxo-7-(trifluoromethyl)-3,4-dihydroquinazolin-1(2H)-yl)-N-(3-(2,4-dioxo-7-(trifluoromethyl)-3,4-dihydroquinazolin-1(2H)-yl)phenyl)thiophene-3-carboxamide] showed an IC50 of under 200 nM.
`CN(C)c1nc(=O)n(-c2cccc(NC(=O)c3csc(-n4c(=O)nc(N(C)C)c5ccc(C(F)(F)F)cc54)c3)c2)c2cc(C(F)(F)F)ccc12` [Example 6, 5-(4-(Dimethylamino)-2-oxo-7-(trifluoromethyl)quinazolin-1(2H)-yl)-N-(3-(4-(dimethylamino)-2-oxo-7-(trifluoromethyl)quinazolin-1(2H)-yl)phenyl)thiophene-3-carboxamide] was tested, and the IC50 was under 200 nM.
With `O=C(Nc1cccc(-n2c(=O)[nH]c(=O)c3ccc(Cl)cc32)c1)c1cccc(-n2c(=O)[nH]c(=O)c3ccc(Cl)cc32)c1` [Example 7, 3-(7-Chloro-2,4-dioxo-3,4-dihydroquinazolin-1(2H)-yl)-N-(3-(7-chloro-2,4-dioxo-3,4-dihydroquinazolin-1(2H)-yl)phenyl)benzamide] the IC50 was under 200 nM.
`CN(C)c1nc(=O)n(-c2cccc(NC(=O)c3cnc(-n4c(=O)nc(N(C)C)c5ccc(Cl)cc54)s3)c2)c2cc(Cl)ccc12` [Example 8, 2-(7-Chloro-4-(dimethylamino)-2-oxoquinazolin-1(2H)-yl)-N-(3-(7-chloro-4-(dimethylamino)-2-oxoquinazolin-1(2H)-yl)phenyl)thiazole-5-carboxamide] was tested, and the IC50 was under 200 nM.
`Cn1c(-n2c(=O)[nH]c(=O)c3ccc(Cl)cc32)cnc1C(=O)Nc1cccc(-n2c(=O)[nH]c(=O)c3ccc(Cl)cc32)c1` [Example 9, 5-(7-Chloro-2,4-dioxo-3,4-dihydroquinazolin-1(2H)-yl)-N-(3-(7-chloro-2,4-dioxo-3,4-dihydroquinazolin-1(2H)-yl)phenyl)-1-methyl-1H-imidazole-2-carboxamide] was tested, and the IC50 was under 200 nM.
In the case of `CN(C)c1nc(=O)n(-c2cccc(NC(=O)c3cc(-n4c(=O)nc(N(C)C)c5ccc(Br)cc54)n(C)n3)c2F)c2cc(Cl)ccc12` [Example 10, 5-(7-Bromo-4-(dimethylamino)-2-oxoquinazolin-1(2H)-yl)-N-(3-(7-chloro-4-(dimethylamino)-2-oxoquinazolin-1(2H)-yl)-2-fluorophenyl)-1-methyl-1H-pyrazole-3-carboxamide], the IC50 is reported as under 200 nM.
`CN(C)c1nc(=O)n(-c2cccc(NCc3csc(-n4c(=O)nc(N(C)C)c5ccc(Cl)cc54)c3)c2)c2cc(Cl)ccc12` [Example 11, 7-Chloro-1-(4-(((3-(7-chloro-4-(dimethylamino)-2-oxoquinazolin-1(2H)-yl)phenyl)amino)methyl)thiophen-2-yl)-4-(dimethylamino)quinazolin-2(1H)-one] gave an IC50 of under 200 nM.
Work on `CN(C)c1nc(=O)n(-c2cccc(OCc3csc(-n4c(=O)nc(N(C)C)c5ccc(Cl)cc54)c3)c2)c2cc(Cl)ccc12` [Example 12, 7-Chloro-1-(4-((3-(7-chloro-4-(dimethylamino)-2-oxoquinazolin-1(2H)-yl)phenoxy)methyl)thiophen-2-yl)-4-(dimethylamino)quinazolin-2(1H)-one] yielded an IC50 of under 200 nM.
